These results are taken from patent US10479780B2, “Aminopyrazole derivatives” (Chugai Seiyaku Kabushiki Kaisha, priority 2015, dated 2019).

Read-outs that look alike come from different tables or passages of the source.

Common to all, as to type: biochemical
The target of one experiment is T1, human Yes1 enzyme (Homo sapiens, UniProt P07947).
T1 construct: made in house
Briefly: Yes1 enzyme inhibitory activity (time-resolved fluorometry, biotinylated peptide phosphorylation). Particulars: read-out: YES_IC50. The method in brief:
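Inhibition was expressed against a compound-free control to give IC50, using TR-FRET read-out (Eu-cryptate anti-pTyr antibody, streptavidin-XL665).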

The target of the next experiment is T2, human Lck enzyme (Homo sapiens, UniProt P06239).
T2 construct: purchased Carna Biosciences, Inc. 08-170
T2 sequence (P06239 whole entry): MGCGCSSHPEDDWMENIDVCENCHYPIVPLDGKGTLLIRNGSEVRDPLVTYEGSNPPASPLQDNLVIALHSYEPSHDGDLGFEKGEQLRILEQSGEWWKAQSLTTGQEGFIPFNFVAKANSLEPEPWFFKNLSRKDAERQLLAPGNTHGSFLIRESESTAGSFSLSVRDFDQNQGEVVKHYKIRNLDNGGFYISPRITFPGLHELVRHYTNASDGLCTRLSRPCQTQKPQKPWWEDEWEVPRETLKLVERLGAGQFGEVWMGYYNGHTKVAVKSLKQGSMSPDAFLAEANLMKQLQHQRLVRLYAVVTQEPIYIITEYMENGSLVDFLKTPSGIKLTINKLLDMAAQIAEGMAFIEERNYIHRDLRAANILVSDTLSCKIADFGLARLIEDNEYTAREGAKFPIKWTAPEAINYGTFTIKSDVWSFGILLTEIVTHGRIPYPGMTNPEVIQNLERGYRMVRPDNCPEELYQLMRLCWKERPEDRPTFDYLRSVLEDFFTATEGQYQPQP
Briefly: Lck enzyme inhibitory activity (time-resolved fluorometry, biotinylated peptide phosphorylation). The following applies: read-out: LCK_IC50. The method in brief: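 Readout pairs a europium cryptate-labelled anti-phosphotyrosine antibody with XL665-streptavidin, measured by time-resolved fluorescence. IC50 derived from percent inhibition against untreated controls.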

For a further experiment, the target named is T3, human Src enzyme (Homo sapiens, UniProt P12931).
T3 construct: purchased Carna Biosciences, Inc. 08-173
T3 sequence (P12931 whole entry): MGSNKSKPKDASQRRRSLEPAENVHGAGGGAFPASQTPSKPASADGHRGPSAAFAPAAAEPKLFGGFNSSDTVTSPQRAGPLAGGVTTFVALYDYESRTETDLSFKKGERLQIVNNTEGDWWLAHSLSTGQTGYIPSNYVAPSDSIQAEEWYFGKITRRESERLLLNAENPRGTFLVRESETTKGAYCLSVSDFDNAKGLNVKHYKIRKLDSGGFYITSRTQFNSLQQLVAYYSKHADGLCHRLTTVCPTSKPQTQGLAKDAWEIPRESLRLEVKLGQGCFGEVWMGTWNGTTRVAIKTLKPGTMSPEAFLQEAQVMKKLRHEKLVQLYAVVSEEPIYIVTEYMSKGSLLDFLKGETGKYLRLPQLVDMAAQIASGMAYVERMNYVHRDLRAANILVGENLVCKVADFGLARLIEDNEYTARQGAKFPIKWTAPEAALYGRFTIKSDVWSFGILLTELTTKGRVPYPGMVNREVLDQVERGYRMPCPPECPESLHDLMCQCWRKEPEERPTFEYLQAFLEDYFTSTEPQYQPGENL
Nature of the experiment: Src enzyme inhibitory activity (time-resolved fluorometry, biotinylated peptide phosphorylation). The following applies: read-out: SRC_IC50. The method in brief: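 Compounds were tested for blocking tyrosine phosphorylation of a biotinylated peptide substrate by recombinant human Src. Phosphorylated product was quantified by time-resolved fluorometry using europium cryptate and XL665 conjugates, and IC50 was calculated against the compound-free control.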

The mark [1] stands for this setting: biotinylated peptide phosphorylation.

T1 sequence (P07947 whole entry): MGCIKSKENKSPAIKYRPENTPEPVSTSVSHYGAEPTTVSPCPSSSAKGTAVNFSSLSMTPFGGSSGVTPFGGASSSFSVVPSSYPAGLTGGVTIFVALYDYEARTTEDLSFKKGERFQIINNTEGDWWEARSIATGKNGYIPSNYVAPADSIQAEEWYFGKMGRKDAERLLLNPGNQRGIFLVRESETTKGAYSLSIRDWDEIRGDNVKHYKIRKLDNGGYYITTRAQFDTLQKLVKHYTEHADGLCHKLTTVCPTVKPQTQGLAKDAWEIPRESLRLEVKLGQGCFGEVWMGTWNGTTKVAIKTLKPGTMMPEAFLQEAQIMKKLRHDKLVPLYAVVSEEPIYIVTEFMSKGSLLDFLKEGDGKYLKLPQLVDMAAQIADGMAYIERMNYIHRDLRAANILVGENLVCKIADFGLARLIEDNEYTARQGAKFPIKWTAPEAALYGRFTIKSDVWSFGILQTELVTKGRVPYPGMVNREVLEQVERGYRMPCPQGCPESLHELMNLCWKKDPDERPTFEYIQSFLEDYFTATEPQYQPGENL

Turning to `Cc1cc2cc(C(=O)c3cnn(-c4cnc(Oc5c(F)cccc5F)cc4C)c3N)[nH]c2cc1N1C(=O)[C@@H]2CCCN2C1=O` [Example 5-1-454, (7aS)-2-[2-[5-amino-1-[6-(2,6-difluorophenoxy)-4-methylpyridin-3-yl]pyrazole-4-carbonyl]-5-methyl-1H-indol-6-yl]-5,6,7,7a-tetrahydropyrrolo[1,2-c]imidazole-1,3-dione], the IC50 on human Yes1 enzyme (setting [1]) was 1.7 nM; on human Lck enzyme (setting [1]), 5.1 nM; on human Src enzyme (setting [1]), 40 nM.
Taken in the same sequence, the figures for `Cc1cc(Oc2ccc(F)cc2)ncc1-n1ncc(C(=O)c2cc3cc(F)c(NS(C)(=O)=O)cc3[nH]2)c1N` [Example 4-2-039, N-[2-[5-amino-1-[6-(4-fluorophenoxy)-4-methylpyridin-3-yl]pyrazole-4-carbonyl]-5-fluoro-1H-indol-6-yl]methanesulfonamide] were 4.1 nM, 32 nM and 84 nM.
In the case of `Cc1cc(Oc2c(F)cccc2F)ncc1-n1ncc(C(=O)c2cc3cc(OC(F)F)c(N4CCN(S(C)(=O)=O)CC4)cc3[nH]2)c1N` [Example 5-1-075, [5-amino-1-[6-(2,6-difluorophenoxy)-4-methylpyridin-3-yl]pyrazol-4-yl]-[5-(difluoromethoxy)-6-(4-methylsulfonylpiperazin-1-yl)-1H-indol-2-yl]methanone], the results for the IC50 at human Yes1 enzyme, on human Lck enzyme and at human Src enzyme were 2.8 nM, 18 nM and 73 nM, respectively.
`Cc1cc(Oc2c(F)cccc2F)ncc1-n1ncc(C(=O)c2cc3cc(OC(F)F)c(N)cc3[nH]2)c1N` [Example 5-1-074, [6-amino-5-(difluoromethoxy)-1H-indol-2-yl]-[5-amino-1-[6-(2,6-difluorophenoxy)-4-methylpyridin-3-yl]pyrazol-4-yl]methanone]: the IC50 on human Yes1 enzyme was found to be 1.6 nM; on human Lck enzyme, 3.2 nM; at human Src enzyme, 25 nM.
`Cc1cc(Oc2cc(F)ccc2F)cc(F)c1-n1ncc(C(=O)c2cc3cc(Cl)c(NS(C)(=O)=O)cc3[nH]2)c1N` [Example 4-2-081, N-[2-[5-amino-1-[4-(2,5-difluorophenoxy)-2-fluoro-6-methylphenyl]pyrazole-4-carbonyl]-5-chloro-1H-indol-6-yl]methanesulfonamide]: the IC50 is 14 nM on human Yes1 enzyme (setting [1]), 83 nM at human Lck enzyme (setting [1]) and 210 nM at human Src enzyme (setting [1]).
With `Cc1cc(Oc2ccccc2F)ncc1-n1ncc(C(=O)c2cc3cc(C4CC4)c(NS(=O)(=O)C4CCOCC4)cc3[nH]2)c1N` [Example 5-1-396, N-[2-[5-amino-1-[6-(2-fluorophenoxy)-4-methylpyridin-3-yl]pyrazole-4-carbonyl]-5-cyclopropyl-1H-indol-6-yl]oxane-4-sulfonamide], the IC50 on human Yes1 enzyme came to 3.6 nM; at human Lck enzyme, 68 nM; on human Src enzyme, 230 nM.
Turning to `Cc1cc2[nH]c(C(=O)c3cnn(-c4ccc(Oc5ccccc5F)cc4C)c3N)cc2cc1NS(C)(=O)=O` [Example 4-2-049, N-[2-[5-amino-1-[4-(2-fluorophenoxy)-2-methylphenyl]pyrazole-4-carbonyl]-6-methyl-1H-indol-5-yl]methanesulfonamide], the values for the IC50 at human Yes1 enzyme (setting [1]), at human Lck enzyme (setting [1]) and at human Src enzyme (setting [1]) were 0.29 nM, 1.7 nM and 1.9 nM, respectively.
Turning to `Cc1cc2cc(C(=O)c3cnn(-c4cnc(Oc5ccccc5F)cc4C)c3N)[nH]c2cc1NS(C)(=O)=O` [Example 4-2-061, N-(2-(5-Amino-1-(6-(2-fluorophenoxy)-4-methylpyridin-3-yl)-1H-pyrazole-4-carbonyl)-5-methyl-1H-indol-6-yl)methanesulfonamide], the IC50 worked out at 0.52 nM on human Yes1 enzyme (setting [1]), 6.5 nM at human Lck enzyme (setting [1]) and 31 nM at human Src enzyme (setting [1]).
Consider `Cc1cc(-n2ncc(C(=O)c3cc4cc(OC5CCN(C6CCCC6)CC5)c(-c5ccccc5C)cc4[nH]3)c2N)ccc1Oc1ccccc1F` [Example 5-1-335, [5-amino-1-[4-(2-fluorophenoxy)-3-methylphenyl]pyrazol-4-yl]-[5-(1-cyclopentylpiperidin-4-yl)oxy-6-(2-methylphenyl)-1H-indol-2-yl]methanone], for which the IC50 at human Yes1 enzyme turned out to be 2.7 nM; at human Lck enzyme, 120 nM; at human Src enzyme it was 1700 nM.
`Cc1cc(Oc2c(F)cccc2F)ncc1-n1ncc(C(=O)c2cc3cc(OC(F)F)c(N4CCOCC4)cc3[nH]2)c1N` [Example 4-25-023, [5-amino-1-[6-(2,6-difluorophenoxy)-4-methylpyridin-3-yl]pyrazol-4-yl]-[5-(difluoromethoxy)-6-morpholin-4-yl-1H-indol-2-yl]methanone]: the values for the IC50 on human Yes1 enzyme (setting [1]), at human Lck enzyme (setting [1]) and at human Src enzyme (setting [1]) were 6.3 nM, 16 nM and 86 nM, respectively.
Taken in the same sequence, the figures for `Cc1cnc(F)c(S(=O)(=O)Nc2cc3[nH]c(C(=O)c4cnn(-c5ccc(Oc6ccccc6F)cc5C)c4N)cc3cc2C)c1` [Example 5-1-520, N-[2-[5-amino-1-[4-(2-fluorophenoxy)-2-methylphenyl]pyrazole-4-carbonyl]-5-methyl-1H-indol-5-yl]-2-fluoro-5-methylpyridine-3-sulfonamide] were 2.7 nM, 67 nM and 270 nM.
For the molecule `COc1cc2cc(C(=O)c3cnn(-c4ccc(Oc5ccccc5F)cc4C)c3N)[nH]c2cc1NS(=O)(=O)CC(=O)N1CCCC1` [Example 5-1-122, N-[2-[5-amino-1-[4-(2-fluorophenoxy)-2-methylphenyl]pyrazole-4-carbonyl]-5-methoxy-1H-indol-6-yl]-2-oxo-2-pyrrolidin-1-ylethanesulfonamide], the IC50 at human Yes1 enzyme worked out at 0.39 nM; on human Lck enzyme, 4.6 nM; at human Src enzyme, 30 nM.
Take `Cc1cc(Oc2ccccc2F)ncc1-n1ncc(C(=O)c2cc3cc(OCC(F)F)c(N4CCOCC4)cc3[nH]2)c1N` [Example 4-25-020, {5-amino-1-[6-(2-fluorophenoxy)-4-methylpyridin-3-yl]pyrazol-4-yl}-[5-(2,2-difluoroethoxy)-6-morpholin-4-yl-1H-indol-2-yl]methanone]: the IC50 on human Yes1 enzyme (setting [1]) was determined as 1.2 nM; at human Lck enzyme (setting [1]), 2.3 nM; at human Src enzyme (setting [1]), 13 nM.
In the case of `Cc1cc2cc(C(=O)c3cnn(-c4ccc(Oc5ccccc5F)cc4C)c3N)[nH]c2cc1NS(=O)(=O)C1CCOCC1` [Example 5-1-347, N-[2-[5-amino-1-[4-(2-fluorophenoxy)-2-methylphenyl]pyrazole-4-carbonyl]-5-methyl-1H-indol-6-yl]oxane-4-sulfonamide], the results for the IC50 on human Yes1 enzyme, on human Lck enzyme and on human Src enzyme were 0.87 nM, 11 nM and 46 nM, respectively.
As for `Cc1cc2cc(C(=O)c3cnn(-c4cnc(Oc5ccccc5F)cc4C)c3N)[nH]c2cc1NS(=O)(=O)c1cccc2ccccc12` [Example 5-1-465, N-[2-[5-amino-1-[6-(2-fluorophenoxy)-4-methylpyridin-3-yl]pyrazole-4-carbonyl]-5-methyl-1H-indol-6-yl]naphthalene-1-sulfonamide], the values for the IC50 at human Yes1 enzyme (setting [1]), on human Lck enzyme (setting [1]) and on human Src enzyme (setting [1]) were 25 nM, 510 nM and 4000 nM, respectively.
Turning to `Cc1cc(Oc2c(F)cccc2F)ncc1-n1ncc(C(=O)c2cc3cc(F)c(-n4c(C)cc(=O)[nH]c4=O)cc3[nH]2)c1N` [Example 5-1-101, 1-[2-[5-amino-1-[6-(2,6-difluorophenoxy)-4-methylpyridin-3-yl]pyrazole-4-carbonyl]-5-fluoro-1H-indol-6-yl]-6-methylpyrimidine-2,4-dione], the IC50 amounted to 1.9 nM at human Yes1 enzyme, 1.1 nM at human Lck enzyme and 25 nM on human Src enzyme.
As to `Cc1cc(-n2ncc(C(=O)c3cc4cc(OCC(F)F)c(-c5cncnc5)cc4[nH]3)c2N)ccc1Oc1ccccc1F` [Example 5-1-261, [5-amino-1-[4-(2-fluorophenoxy)-3-methylphenyl]pyrazol-4-yl]-[5-(2,2-difluoroethoxy)-6-pyrimidin-5-yl-1H-indol-2-yl]methanone], the IC50 on human Yes1 enzyme is 7.9 nM; at human Lck enzyme, 200 nM; on human Src enzyme, 390 nM.
`Cc1cc2cc(C(=O)c3cnn(-c4cnc(Oc5ccccc5F)cc4C)c3N)[nH]c2cc1NS(=O)(=O)c1cccc(C(F)(F)F)c1` [Example 5-1-463, N-[2-[5-amino-1-[6-(2-fluorophenoxy)-4-methylpyridin-3-yl]pyrazole-4-carbonyl]-5-methyl-1H-indol-6-yl]-3-(trifluoromethyl) benzenesulfonamide]: the IC50 is 12 nM at human Yes1 enzyme (setting [1]), 420 nM on human Lck enzyme (setting [1]) and 1900 nM on human Src enzyme (setting [1]).
Take `Cc1cc(Oc2c(F)cccc2F)ncc1-n1ncc(C(=O)c2cc3cc(C(C)C)c(NS(=O)(=O)C4CCCC4)cc3[nH]2)c1N` [Example 5-1-306, N-[2-[5-amino-1-[6-(2,6-difluorophenoxy)-4-methylpyridin-3-yl]pyrazole-4-carbonyl]-5-propan-2-yl-1H-indol-6-yl] cyclopentanesulfonamide]: the IC50 on human Yes1 enzyme is 23 nM; at human Lck enzyme it was 150 nM; at human Src enzyme, 630 nM.
With `Cc1cc(Oc2ccccc2F)ccc1-n1ncc(C(=O)c2cc3cc(OC(F)F)c(N)cc3[nH]2)c1N` [Example 5-1-083, [6-amino-5-(difluoromethoxy)-1H-indol-2-yl]-[5-amino-1-[4-(2-fluorophenoxy)-2-methylphenyl]pyrazol-4-yl]methanone], the results for the IC50 at human Yes1 enzyme, on human Lck enzyme and on human Src enzyme were 0.72 nM, 7 nM and 7.2 nM, respectively.
